Experimental data reported in PubChem BioAssay (NCI).
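Cultured in 96-well plates, cells were exposed to test compound for 48 hours across five concentrations. Definition used: TGI = concentration required for complete inhibition of growth.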

Experiments:
Experiment in all cases: NCI tumour cell line growth inhibition, 48 h
[1] = system: SK-OV-3 ovarian
[2] = system: HOP-92 NSCLC
[3] = system: EKVX NSCLC
[4] = system: HCT-116 colon
[5] = system: UO-31 renal
[6] = system: HOP-62 NSCLC
[7] = system: NCI-H522 lung
[8] = system: UACC-62 melanoma
[9] = system: SK-MEL-2 melanoma
[10] = system: SW-620 colon
[11] = system: T-47D breast
[12] = system: NCI/ADR-RES ovarian
[13] = system: SF-268 CNS
[14] = system: SR leukemia
[15] = system: UACC-257 melanoma
[16] = system: U251 CNS
[17] = system: COLO 205 colon
[18] = system: RPMI-8226 leukemia
[19] = system: SNB-75 CNS
[20] = system: CCRF-CEM leukemia

Structure (SMILES) | TGI [1] [µM] | TGI [2] [µM] | TGI [3] [µM] | TGI [4] [µM] | TGI [5] [µM] | TGI [6] [µM] | TGI [7] [µM] | TGI [8] [µM] | TGI [9] [µM] | TGI [10] [µM] | TGI [11] [µM] | TGI [12] [µM] | TGI [13] [µM] | TGI [14] [µM] | TGI [15] [µM] | TGI [16] [µM] | TGI [17] [µM] | TGI [18] [µM] | TGI [19] [µM] | TGI [20] [µM]
Oc1ccccc1/C=N/Nc1nc(N/N=C/c2ccccc2O)nc(N/N=C/c2ccccc2O)n1 | > 100 | 81.7 | > 100 | > 100 | > 100 | > 100 | > 100 | > 100 | > 100 | > 100 | > 100 | > 100 | > 100 | > 100 | > 100 | > 100 | > 100 |  |  | 
COc1cc(C)c(/C=C/C(=O)N2C(=O)OC[C@@H]2c2ccccc2)c(C)c1 | > 100 | > 100 | > 100 | > 100 | > 100 | > 100 | > 100 |  | > 100 | > 100 | 74.1 | > 100 | > 100 |  | > 100 | > 100 | > 100 | > 100 | > 100 | > 100
COc1cc(C2c3cc(O)c(OC)cc3C3OCC2C3CO)ccc1O (stereo not drawn) | > 100 | > 100 | > 100 | > 100 | > 100 | > 100 | > 100 | > 100 | > 100 | > 100 | > 100 | > 100 | > 100 | > 100 |  | > 100 | > 100 | > 100 | > 100 | 
N=C(N)N1CCC(N2CCOCC2)CC1 | > 100 | > 100 | > 100 | > 100 | > 100 | > 100 |  | > 100 |  | > 100 | > 100 | > 100 | > 100 | > 100 | > 100 | > 100 | > 100 | > 100 | > 100 | > 100
O=C1C(N2CCNCC2)=C(Cl)C(=O)c2ncccc21 | > 10 | 7.82 | > 10 | 4.36 |  | > 10 |  | > 10 | > 10 | > 10 | > 10 |  | > 10 | > 10 | > 10 | > 10 | > 10 | > 10 | > 10 | > 10
Cc1ccc(C)n1-n1c(Cc2ccccc2)n[nH]c1=O | > 100 |  | > 100 | > 100 | > 100 | > 100 | > 100 | > 100 | > 100 | > 100 | > 100 | > 100 | > 100 | > 100 | > 100 | > 100 | > 100 | > 100 | > 100 | > 100
CC(C)=NN/C(=N\S(=O)(=O)c1ccc(C)cc1)Nc1ccc(Cl)cc1 |  | > 100 | > 100 | > 100 | > 100 | > 100 | > 100 | > 100 | > 100 | > 100 | > 100 | > 100 | > 100 |  | > 100 | > 100 | > 100 | > 100 |  | > 100
c1cc(Sc2nc(Sc3ccncc3)nc(Sc3ccncc3)n2)ccn1 | > 100 | > 100 | > 100 | > 100 | > 100 | > 100 | > 100 | > 100 | > 100 | > 100 | > 100 | > 100 | > 100 |  | > 100 | > 100 | > 100 | > 100 |  | > 100
Cc1ccc2ccccc2c1NC1=NCCO1 | > 100 | 46.8 | > 100 | > 100 | > 100 | > 100 |  | > 100 |  | > 100 | > 100 | > 100 | > 100 | > 100 | > 100 | > 100 | > 100 | > 100 | > 100 | > 100
FC(F)(Sc1ccccn1)c1nc2ccccc2o1 | > 100 | > 100 |  | > 100 | > 100 | > 100 | > 100 | > 100 | > 100 | > 100 | > 100 | > 100 | > 100 | > 100 | > 100 | > 100 | > 100 | > 100 |  | > 100
